In ChEMBL document CHEMBL5058564, “EUbOPEN Chemogenomics Library 2 (Incucyte)” (2022):

Assays:
Assay type in all cases: toxicity, cell-based
[1] = tested on: HEK-293T; assay: Incucyte cell viability with HEK293T; conditions: human, 10 µM, compound concentration 10 uM
[2] = tested on: Fibroblast; assay: Incucyte cell viability with human fibroblast; conditions: 10 µM, compound concentration 10 uM
[3] = tested on: U2OS; assay: Incucyte cell viability with U2OS; conditions: human, 10 µM, compound concentration 10 uM
[4] = 0 h, replicate number 2, timepoint 0 hours
[5] = 6 h, replicate number 1, timepoint 6 hours
[6] = 6 h, replicate number 2, timepoint 6 hours
[7] = 12 h, replicate number 1, timepoint 12 hours
[8] = 12 h, replicate number 2, timepoint 12 hours
[9] = 18 h, replicate number 1, timepoint 18 hours
[10] = 18 h, replicate number 2, timepoint 18 hours
[11] = 24 h, replicate number 1, timepoint 24 hours
[12] = 24 h, replicate number 2, timepoint 24 hours
[13] = 0 h, replicate number 1, timepoint 0 hours
Also: unitless GR value; below 1 slowed growth and below 0 cell loss.

| SMILES | Growth Rate [1, 4] | Growth Rate [1, 5] | Growth Rate [1, 7] | Growth Rate [1, 8] | Growth Rate [1, 9] | Growth Rate [1, 10] | Growth Rate [1, 11] | Growth Rate [1, 12] | Growth Rate [2, 13] | Growth Rate [2, 4] | Growth Rate [2, 7] | Growth Rate [2, 9] | Growth Rate [2, 11] | Growth Rate [3, 4] | Growth Rate [3, 5] | Growth Rate [3, 6] | Growth Rate [3, 7] | Growth Rate [3, 9] | Growth Rate [3, 10] | Growth Rate [2, 6] | further results |
| --- | --- | --- | --- | --- | --- | --- | --- | --- | --- | --- | --- | --- | --- | --- | --- | --- | --- | --- | --- | --- | --- |
| Cl.FC(F)(F)c1ccc(N2CCNCC2)nc1Cl | 0.55 | 0.75 | 0.89 | 0.95 | 0.79 | 0.89 | 0.75 | 0.82 | 0.87 | 0.43 | 0.59 | 0.46 | 0.59 | 0.39 | 0.77 | 0.86 | 0.84 | 0.93 | 0.87 | – | Growth Rate [1, 6]: 0.92; Growth Rate [2, 5]: 0.27; Growth Rate [3, 8]: 0.78; Growth Rate [3, 12]: 0.96 |
| Cc1nn(C)c(C)c1-c1cccc2c1CC[C@H](N(C)C)C2 | 0.25 | 0.95 | 0.97 | – | 0.97 | – | 0.9 | – | 0.48 | -0.09 | 0.75 | 0.49 | 0.61 | 0.01 | 0.52 | 0.91 | 0.78 | 0.69 | 0.97 | – | Growth Rate [3, 13]: -0.3; Growth Rate [3, 8]: 0.8; Growth Rate [3, 11]: 0.86; Growth Rate [3, 12]: 0.99 |
| CN1CCC(C(=O)c2cccc(NC(=O)c3c(F)cc(F)cc3F)n2)CC1 | -1 | 0.24 | 0.74 | – | 0.81 | – | 0.93 | – | – | 0.32 | 0.6 | 0.86 | 0.59 | 0.68 | 0.94 | – | – | – | – | 0.9 | Growth Rate [2, 10]: 0.96; Growth Rate [2, 12]: 0.78 |
| Cc1ccccc1C#Cc1ccc(CCC(=O)O)cc1 | 0.37 | 0.63 | 0.72 | 0.75 | 0.73 | 0.67 | 0.74 | 0.62 | 0.45 | 0.93 | – | – | – | – | 0.52 | 0.9 | 0.67 | 0.7 | 0.92 | 0.07 | Growth Rate [1, 6]: 0.81; Growth Rate [2, 8]: 0.32; Growth Rate [2, 10]: 0.35; Growth Rate [2, 12]: 0.31; Growth Rate [3, 13]: 0.25; Growth Rate [3, 11]: 0.77 |
| NC(=O)c1ccc(CNC(=O)NC[C@H]2CN(Cc3ccc(Cl)c(Cl)c3)CCO2)cc1 | 0.54 | 0.47 | 0.86 | – | 0.88 | 1 | 0.88 | 0.8 | 0.21 | – | – | – | – | 0.11 | 0.32 | – | 0.8 | 0.91 | – | – | – |
| COc1ccccc1N1CCN(CCCCNC(=O)c2ccc3ccccc3c2)CC1.Cl | 0.97 | 0.59 | – | 0.83 | 0.54 | – | 0.56 | 0.66 | 0.79 | -0.14 | 0.23 | – | -0.24 | – | 0.51 | 0.78 | 0.58 | 0.77 | 0.97 | 0.14 | Growth Rate [1, 6]: 0.65; Growth Rate [2, 5]: -0.59; Growth Rate [2, 8]: -0.06; Growth Rate [2, 10]: 0.09; Growth Rate [3, 13]: 0.06; Growth Rate [3, 8]: 0.96; Growth Rate [3, 11]: 0.81; Growth Rate [3, 12]: 0.92 |
| CCCCCCCCCCCCCCC[C@@H](O)[C@@H](N)COP(=O)(O)O | 0.71 | 0.25 | 0.48 | 0.76 | 0.51 | 0.88 | 0.63 | 0.74 | – | 0.12 | 0.44 | 0.43 | 0.23 | – | – | – | 0.64 | – | – | 0.42 | Growth Rate [2, 5]: -0.14; Growth Rate [2, 8]: 0.66; Growth Rate [2, 10]: 0.7; Growth Rate [2, 12]: 0.73 |
